The target in one test is T1, Human ALDH3A1 (Homo sapiens, UniProt P30838).
T1 construct: made in house
T1 sequence (P30838 1-453): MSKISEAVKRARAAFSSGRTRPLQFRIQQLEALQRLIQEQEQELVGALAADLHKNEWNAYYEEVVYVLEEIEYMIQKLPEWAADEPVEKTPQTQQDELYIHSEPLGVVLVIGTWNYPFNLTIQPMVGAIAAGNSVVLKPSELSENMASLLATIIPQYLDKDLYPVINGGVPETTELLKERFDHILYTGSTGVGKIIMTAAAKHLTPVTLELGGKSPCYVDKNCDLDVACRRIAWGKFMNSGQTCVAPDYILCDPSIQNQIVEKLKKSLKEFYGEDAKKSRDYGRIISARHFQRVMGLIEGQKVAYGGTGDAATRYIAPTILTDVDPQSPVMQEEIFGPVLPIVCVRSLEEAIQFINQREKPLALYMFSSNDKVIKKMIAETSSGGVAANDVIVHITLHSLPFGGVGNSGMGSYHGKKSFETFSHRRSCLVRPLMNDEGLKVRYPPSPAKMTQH
Nature of the test: ALDH3A1 inhibition, IC50, Ki and type of inhibition. It counts as biochemical. The following applies: for IC50: 31 μM 4-NBA as substrate.

The subject of the next test is PC3. Nature of the test: MTT chemosensitivity assay, PC3. It counts as cell-based, human. The settings on record: Homo sapiens, PC-3, 96 h exposure, ± SD, at least three independent experiments. (In general: Formazan colour is commonly taken as a measure of viable cells.)
The next test has as its system LNCaP. Nature of the test: MTT chemosensitivity assay, LNCaP. It counts as cell-based, human. The following applies: Homo sapiens, LNCaP, 96 h exposure, ± SD, at least three independent experiments.
The test system of test [1] is patient-derived primary prostate tumor epithelial cells. Nature of the test: Alamar Blue cell viability of primary prostate epithelial cultures. The settings on record: 72 h; for cell viability of primary prostate epithelial cultures, combination with docetaxel: 50 and 200 μM + 1 nM docetaxel; for cell viability of primary prostate epithelial cultures, single agent: 50 and 200 μM, four cancer samples and one BPH. It is filed as cell-based, human. The procedure: Primary cells cultured at early passage from human prostate tissue biopsies included one BPH sample H415/15–BPH/PSA 0.61 and four PCa samples H568/15 RM–Gl7(3 + 4)/PSA 8.5, H431/14 LM–Gl7(3 + 4)/PSA 14, H488/14 RM–Gl7(3 + 4)/PSA 12.6, and H517/15 RM–Gl7(3 + 4)/PSA 4.4. Primary cells were obtained with ethical consent (REC ref 07/H1304/121) at radical prostatectomy (cancer) and transurethral resection (BPH) and were seeded as previously described[37] in 96-well plates 5000 cells/well in 100 μL of SCM and incubated at 37 °C, 5% CO2 for 24 h. […] Cells were treated with 100 μL of ALDH inhibitors at concentrations of 50 and 200 μM as single treatment. Combination treatments included 100 μL of 50 μM ALDH inhibitor + 1 nM docetaxel and 100 μL of 200 μM ALDH inhibitor + 1 nM docetaxel. Cells were also treated with 100 μL of 1 nM docetaxel only. 1 nM docetaxel was chosen since it was the IC50 when other primary samples were analyzed in our laboratory. Control wells included blank (media only) and untreated cells (DMSO only). Each experiment was performed in triplicate, and cell seeding density was the same in all wells; therefore, changes in treated cells were compared to untreated DMSO control cells. Plates were returned to the incubator for a 72 h incubation before further processing. Alamar Blue solution was added at 10% of total sample volume, and plates were incubated at 37 °C for 1–4 h before absorbance was analyzed in a plate reader.[65] Alamar Blue has an excitation wavelength of 530–560 nm and an emission wavelength of 590 nm. Total % cell viability/cell survival was calculated by dividing the absorbance of the treated sample by the absorbance of control and multiplying it by 100.
On the technique in general: Resazurin is reduced to fluorescent resorufin, in cell work by metabolically active cells.

For orientation: IC50 means the concentration at which inhibition is half-maximal. The term Ki denotes the equilibrium dissociation constant of an inhibitor or competing ligand from its target.

The structures appear in SMILES notation.

For the molecule `CCCN(CCC)c1ccc(C=O)cc1Br` [Compound 14, 3-Bromo-4-(dipropylamino)benzaldehyde], the results for the IC50 on Human ALDH3A1 (mean ± SE), in the test on PC3 and with LNCaP were 8 ± 1.56 µM, 47 ± 6 µM and 25 ± 1 µM, respectively. The “cell viability of primary prostate epithelial cultures, combination with docetaxel” value in test [1] is given as “more potent than DEAB”. For the same molecule, the “cell viability of primary prostate epithelial cultures, single agent” value in test [1] was “more potent than DEAB”.

In the case of `CCCN(CCC)c1ccc(C=O)cc1[N+](=O)[O-]` [Compound 18, 4-(Dipropylamino)-3-Nitrobenzaldehyde], the half-inhibitory concentration (IC50) on Human ALDH3A1 (mean ± SE) came out at 1.61 ± 0.17 µM; with PC3, 98 ± 12 µM; in the test with LNCaP, 31 ± 6 µM. Moreover, at Human ALDH3A1 (4-NBA as substrate), the “type of inhibition ALDH3A1” value is on record as “competitive”. Moreover, the inhibitory constant (Ki) at Human ALDH3A1 (4-NBA as substrate, fit to competitive inhibition equation, mean ± SE) worked out at 0.3 ± 0.06 µM. In addition, the “IC50 with versus without preincubation with the cofactor NADP+” value on Human ALDH3A1 (5-min preincubation) is reported as “no differences were observed”. The “cell viability of primary prostate epithelial cultures, combination with docetaxel” value in test [1] is listed as “more potent than DEAB”. The “cell viability of primary prostate epithelial cultures, single agent” value in test [1] is “more potent than DEAB”.

The record behind these values is PMC9007462 (Journal of Medicinal Chemistry, 2022).
